{"source": "patent US11590137B2", "about": "“Ruxolitinib formulation for reduction of itch in atopic dermatitis” (Incyte Corporation, priority 2019, dated 2023)", "key": {"[1]": {"assay": "Solubility of ruxolitinib free base or 1:1 phosphate salt in potential solvents (HPLC)", "format": "physicochemical", "settings": "for solubility at 24 h: thermodynamic from solid; for Solubility: listed as Free Base", "description": "First, in order to determine the solubility of ruxolitinib (free base) or its 1:1 phosphate salt, approximately 5 mL of a potential solvent was added to approximately 50 mg of the API or its salt at room temperature. The mixtures were suspended and rotated on a wheel. If the mixtures became clear solutions, more solid material was added. The suspensions were then suspended over 24 hours. The samples were filtered through 0.2 micron filters. The liquid portions were collected and diluted with 50/50 water methanol/water. The concentrations of the diluted samples were analyzed by HPLC. When the free base or salt was fairly insoluble, the results are approximate only."}, "[2]": {"test_system": "patients with moderate-to-severe AD", "settings": "subcutaneous, At Week 16, Solo1 and Solo2 trials, cited from earlier work; for Proportion of patient achieving a 4-point improvement in itch NRS score: itch NRS score of ≥4 at baseline"}, "[3]": {"settings": "300 mg every other week, first printed value"}, "[4]": {"settings": "300 mg every other week, second printed value"}, "[5]": {"settings": "300 mg every week, first printed value"}, "[6]": {"settings": "300 mg every week, second printed value"}}, "note": "Like-named read-outs stand apart in the source and are kept apart here."}
{"compound": "N#CC[C@H](C1CCCC1)n1cc(-c2ncnc3[nH]ccc23)cn1", "note": "[ruxolitinib phosphate]", "values": [{"measurement": "solubility at 24 h", "setting": "[1]; C12-15 alcohol benzoate, oil or lipid", "value": "< 200", "unit": "µg/mL"}, {"measurement": "solubility at 24 h", "setting": "[1]; caprylic triglyceride, oil or lipid", "value": "< 200", "unit": "µg/mL"}, {"measurement": "solubility at 24 h", "setting": "[1]; dimethicone, oil or lipid", "value": "< 200", "unit": "µg/mL"}, {"measurement": "solubility at 24 h", "setting": "[1]; isopropyl myristate, oil or lipid", "value": "< 100", "unit": "µg/mL"}, {"measurement": "solubility at 24 h", "setting": "[1]; mineral oil, oil or lipid", "value": "< 100", "unit": "µg/mL"}, {"measurement": "solubility at 24 h", "setting": "[1]; oleyl alcohol, oil or lipid, Olelyl alcohol", "value": 100, "unit": "µg/mL"}, {"measurement": "solubility at 24 h", "setting": "[1]; propylene glycol, organic solvent or mixture", "value": 24000, "unit": "µg/mL"}, {"measurement": "solubility at 24 h", "setting": "[1]; water/PEG 200 (50/50), aqueous with cosolvent or surfactant or cyclodextrin", "value": 23000, "unit": "µg/mL"}, {"measurement": "solubility at 24 h", "setting": "[1]; water/glycerin/trolamine (40/40/20), aqueous with cosolvent or surfactant or cyclodextrin", "value": 18000, "unit": "µg/mL"}]}
{"compound": "N#CC[C@H](C1CCCC1)n1cc(-c2ncnc3[nH]ccc23)cn1", "note": "[ruxolitinib, (R)-3-(4-(7H-pyrrolo[2,3-d]pyrimidin-4-yl)-1H-pyrazol-1-yl)-3-cyclopentylpropanenitrile]", "values": [{"measurement": "solubility at 24 h", "setting": "[1]; 0.1 M citric buffer, pH 4, aqueous buffer, pH 4, citric buffer, 0.1M", "value": 1100, "unit": "µg/mL"}, {"measurement": "solubility at 24 h", "setting": "[1]; 0.1 M citric buffer, pH 6, aqueous buffer, pH 6, citric buffer, 0.1M", "value": 150, "unit": "µg/mL"}, {"measurement": "Solubility", "setting": "[1]; C12-15 alcohol benzoate", "value": 150, "unit": "µg/mL"}, {"measurement": "Solubility", "setting": "[1]; Caprylic triglyceride", "value": 150, "unit": "µg/mL"}, {"measurement": "Solubility", "setting": "[1]; Mineral oil", "value": 80, "unit": "µg/mL"}, {"measurement": "Solubility", "setting": "[1]; Olelyl alcohol", "value": 80, "unit": "µg/mL"}, {"measurement": "solubility at 24 h", "setting": "[1]; PEG 200, organic solvent or mixture, PEG 200", "value": 17400, "unit": "µg/mL"}, {"measurement": "solubility at 24 h", "setting": "[1]; PEG 300, organic solvent or mixture, PEG 300", "value": 10600, "unit": "µg/mL"}, {"measurement": "solubility at 24 h", "setting": "[1]; Transcutol, organic solvent or mixture", "value": 7600, "unit": "µg/mL"}, {"measurement": "Solubility", "setting": "[1]; Water/PEG 200 (50/50)", "value": 17400, "unit": "µg/mL"}, {"measurement": "solubility at 24 h", "setting": "[1]; benzyl alcohol, organic solvent or mixture", "value": 2300, "unit": "µg/mL"}, {"measurement": "solubility at 24 h", "setting": "[1]; ethanol, organic solvent or mixture", "value": 5500, "unit": "µg/mL"}, {"measurement": "solubility at 24 h", "setting": "[1]; glycerin, organic solvent or mixture", "value": 8300, "unit": "µg/mL"}, {"measurement": "solubility at 24 h", "setting": "[1]; isopropanol, organic solvent or mixture", "value": 450, "unit": "µg/mL"}, {"measurement": "solubility at 24 h", "setting": "[1]; isosorbide dimethyl ether, organic solvent or mixture", "value": 300, "unit": "µg/mL"}, {"measurement": "solubility at 24 h", "setting": "[1]; trolamine, organic solvent or mixture", "value": 38600, "unit": "µg/mL"}, {"measurement": "solubility at 24 h", "setting": "[1]; water, room temperature", "value": 2000, "unit": "µg/mL"}, {"measurement": "solubility at 24 h", "setting": "[1]; water/glycerin (50/50), aqueous with cosolvent or surfactant or cyclodextrin, Water/glyercin (50/50)", "value": 15900, "unit": "µg/mL"}]}
{"compound": "dupilumab: a systemic biologic agent; phase 3 trials in moderate-to-severe AD cited for comparison", "values": [{"measurement": "Proportion of patients achieving EASI-75", "setting": "[2]; [3]", "value": 44, "unit": "%"}, {"measurement": "Proportion of patients achieving IGA-TS", "setting": "[2]; [3]", "value": 36, "unit": "%"}, {"measurement": "Proportion of patients achieving EASI-75", "setting": "[2]; [4]", "value": 51, "unit": "%"}, {"measurement": "Proportion of patients achieving IGA-TS", "setting": "[2]; [4]", "value": 38, "unit": "%"}, {"measurement": "Proportion of patient achieving a 4-point improvement in itch NRS score", "setting": "[2]; [3]", "value": 36, "unit": "%"}, {"measurement": "Proportion of patient achieving a 4-point improvement in itch NRS score", "setting": "[2]; [4]", "value": 41, "unit": "%"}, {"measurement": "Proportion of patients achieving EASI-75", "setting": "[2]; [5]", "value": 48, "unit": "%"}, {"measurement": "Proportion of patients achieving IGA-TS", "setting": "[2]; [5]", "value": 36, "unit": "%"}, {"measurement": "Proportion of patients achieving EASI-75", "setting": "[2]; [6]", "value": 52, "unit": "%"}, {"measurement": "Proportion of patients achieving IGA-TS", "setting": "[2]; [6]", "value": 37, "unit": "%"}, {"measurement": "Proportion of patient achieving a 4-point improvement in itch NRS score", "setting": "[2]; [5]", "value": 39, "unit": "%"}, {"measurement": "Proportion of patient achieving a 4-point improvement in itch NRS score", "setting": "[2]; [6]", "value": 40, "unit": "%"}]}
